Experimental data as given in article PMC9323733, “Efficacy of Vafidemstat in Experimental Autoimmune Encephalomyelitis Highlights the KDM1A/RCOR1/HDAC Epigenetic Axis in Multiple Sclerosis” (Pharmaceutics, 2022).

Experiments:
[1] = test system: spinal cord and brain of EAE mice; assay: qRT-PCR validation of microarray biomarkers, spinal cord and brain of EAE mice; type: in vivo, mouse
Protocol: We evaluated differences in gene expression induced by the treatment using real-time PCR and by microarray hybridization analysis. First, total RNA was isolated from brain and spinal cord segments from EAE mice using Qiazol™ and the RNeasy MiniKit™ extraction kit (Qiagen). Evaluation of RNA quality was performed with the Agilent 2100 bioanalyzer and NanoDrop™ ND-1000 (Thermo Scientific, Dartford, Kent, UK). After DNAse I treatment, RNA (1 µg/sample) was reverse transcribed using RevertAid First strand cDNA Synthesis kit (Fermentas) and random hexamer primers. For evaluating the expression of the inflammatory markers TNFα, IL-1β, IP10, IL-4, and CCL5, real time PCR was performed by using iQ SYBR Green Supermix (Bio-Rad, Feldkirchen, Germany) according to manufacturer’s instructions in a BIORAD CFX96 thermal cycler. Primer sequences and PCR conditions are indicated in Supplementary Materials Table S3. […]
For the gene expression studies, data from microarray assays were normalized by modified nonlinear Q-splines normalization method and Log2(Sample/Vehicle) values calculated without background correction (which permits robust selection of differentially expressed genes yet may lead to sub-estimation of the magnitude of change for genes expressed near the detection limit). Differential expression was assessed with the proprietary Polyphemus software using robust statistics on the average technical replicates (3 replicates/gene oligo datapoint) after removing eventual outlier points (caused by dust or array imperfections). […] The p values were calculated after outlier elimination based on the absolute value of the regularized t-statistics, which uses a Bayesian framework to derive the algorithm, using internal replicated controls to assess the minimum technical variability of the process. Correlation between gene expression changes induced by different treatments was analysed by calculating the Pearson correlation coefficient r using the Log2(Treatment/Veh) values for all genes expressed above background level (n). […]

[2] = test system: patients and healthy volunteers; conditions: cited from earlier work
[3] = Drug exposure in male and female animals; type: in vivo; conditions: mice and rats
Text: Sex and Gender in this Research
Multiple sclerosis (MS) is more prevalent in women than men, but male patients develop more severe clinical symptoms and deteriorate faster than female patients. With respect to the animal models for MS used in this research, t he following aspects were considered: […]
and rats, which were not deemed relevant for this research. Previous efficacy studies in the […]
animals usedand perfo rm separate studies for male an female mice in MS models.
MOG35-55 induced EAE in C57BL/6 mice:
No differences have been observed in disease incidence or severity between sexes in MOG35-55 induced EAE in C57BL/6 mice in a study by Papenfuss et al. (J Neuroimmunol, 2004;150(1-2):59-69, therefore it was not deemed justified to increase the number of animals used in the studies to study males and females independently in the experiments reported in this […]
Although a higher incidence and severity has been reported for male than female SJL mice in the TMEV model (Alley et al. Exp Neurol, 2003 Mar;180(1):14-24), females are used in mo st studies because the strain of SJL male mice are very aggressive and display a high level of dominance and inflict wounds to their housemates. […]
Hypothetical sexual dimorphism in spinal cord organotypic cultures and chr onic excitotoxicity treatment derived from 8 day old Sprague-Dawley male or female pups was not assessed. […]

[4] = test system: spleen cells isolated from mice suffering chronic EAE; assay: Encephalitogenic T-cell response in vitro, spleen cells of EAE mice re-stimulated with MOG35–55; type: cell-based, mouse; conditions: 0.5 µM ORY-2001, MOG35–55 15 µM
Protocol: Spleen and draining lymph node (DLN) cells (10^6/mL) collected from EAE mice were stimulated in complete medium (RPMI 1640 containing 10% FBS, 50 µM 2-ME, 2 mM L-glutamine, 100 U/mL penicillin, and 100 µg/mL streptomycin) with 15 µM MOG35–55. After 48 h, cytokine (IL-4, TNF-alpha, IFN-gamma) and chemokine (IP-10 and MCP1) contents in culture supernatants were determined by sandwich ELISAs using capture/biotinylated detection Abs according to the manufacturer’s recommendations. The antibodies used are indicated in Supplementary Materials Table S4. Cell proliferation was evaluated after 72 h by adding 2.5 µCi/mL tritiated-thymidine during the last 8 h of culture and determining cpm incorporation in a Microbeta counter. We used T cell activation with an anti-CD3 […] antibody (1 µg/mL) or ConA (2.5 µg/mL) as controls of unspecific polyclonal stimulation.
Data are the mean ± SEM with dots representing individual values of biologically independent animals.

Nc1nnc(CN[C@@H]2C[C@H]2c2ccc(OCc3ccccc3)cc2)o1 [ORY-2001]
Ttr upregulation in spinal cord, check by qRT-PCR ([1]; increased pooled value came from a single outlier sample): discarded as a biomarker | expression of Saa3, Aif1 and Gbp2 (qRT-PCR) ([1]; spinal cord and brain, effector phase): downregulated the inflammatory biomarkers Saa3, Aif1 and Gbp2 | expression of Ccl5, Ip10 and Tnf-alpha (qRT-PCR) ([1]; spinal cord and brain, sub-chronic period): downregulated | YKL40 levels in patients ([2]; AD Phase II trial ETHERAL, relative to placebo): significantly reduced relative to placebo | aggression ([2]; BPD, ADHD, ASD and moderate-severe AD, Phase IIa REIMAGINE and REIMAGINE-AD): significantly reduced aggression | safety in humans ([2]; more than 300 subjects in multiple studies): has been shown to be safe | safety and tolerability, long-term treatment ([2]; relapse-remitting and secondary progressive MS, SATEEN): safe and well tolerated | difference of exposure between male and female animals [3]: Minor differences | IL-10 and IL-4 levels [4]: increasing the levels of the anti-inflammatory mediators IL-10 and IL-4 | MOG35–55-induced proliferation and cytokine production [4]: deactivated the MOG35–55 -induced proliferation and cytokine production in vitro
